In US20140309256A1, “Therapeutic Method” (FibroGen, Inc., priority 2011, published 2014):

Experiments:
PHD3 = PHD3 (Homo sapiens, UniProt Q9H6Z9); test: HIF prolyl hydroxylase enzyme assay, PHD3; format: biochemical
Text: (§1) Suitable assay methods are well known in the art.

[1] = tested on: Human subjects with stage 3 or 4 chronic kidney disease; test: Platelet counts in chronic kidney disease patients treated orally with Compound A; format: in vivo
Experimental: No intravenous iron administration was allowed during the treatment, and subjects who had received more than one administration of IV iron within 12 weeks prior to randomization were excluded.
Groups A (n=24) and B (n=24) received an initial weight-adjusted dose of 60 mg (for subjects of 40 to 60 kg), 100 mg (for subjects of >60 to 90 kg), or 140 mg (for subjects of >90 to 140 kg), three times a week for 4 weeks. Treatment was continued for weeks 5 through 16 with dose adjusted every 4 weeks to maintain hemoglobin of 11-13 g/dL (target Hb range). Group A continued dosing three time a week, Group B was switched to twice weekly dosing.
Groups C (n=24) received a initial fixed dose of 50 mg, three times a week for 4 weeks and group D (n=24) received an initial fixed dose of 100 mg, three times a week. Treatment was continued for weeks 5 to 24 with dose adjusted to maintain hemoglobin of 10.5-12 g/dL (target Hb range). Hemoglobin and platelet counts were measured every 4 weeks.
In a separate analysis of the data from Example 1, all patient data on platelet count over time was combined and stratified into quartiles based on the baseline platelet count. Each quartile had n=24. Quartile 1 included the 24 patients with the lowest baseline platelet count. Quartile 2 included the 24 patients with the next highest baseline platelet count after the patients in quartile 1. Quartile 3 included the 24 patients with the next highest baseline platelet count after the patients in quartile 2. Quartile 4 included the 24 patients with the highest baseline platelet count.

[2] = tested on: Human subjects with stage 3 or 4 chronic kidney disease; test: Hemoglobin levels in chronic kidney disease patients treated orally with Compound A; format: in vivo; conditions: all groups A-D, oral, 16 or 24 weeks; all p<0.0001; dose-dependent
Experimental: No intravenous iron administration was allowed during the treatment, and subjects who had received more than one administration of IV iron within 12 weeks prior to randomization were excluded. […] Treatment was continued for weeks 5 through 16 with dose adjusted every 4 weeks to maintain hemoglobin of 11-13 g/dL (target Hb range). Group A continued dosing three time a week, Group B was switched to twice weekly dosing. Groups C (n=24) received a initial fixed dose of 50 mg, three times a week for 4 weeks and group D (n=24) received an initial fixed dose of 100 mg, three times a week. Treatment was continued for weeks 5 to 24 with dose adjusted to maintain hemoglobin of 10.5-12 g/dL (target Hb range). Hemoglobin and platelet counts were measured every 4 weeks.

PHD1 = PHD1 (Homo sapiens, UniProt Q96KS0); test: HIF prolyl hydroxylase enzyme assay, PHD1; format: biochemical
PHD1, sequence (Q96KS0 whole entry): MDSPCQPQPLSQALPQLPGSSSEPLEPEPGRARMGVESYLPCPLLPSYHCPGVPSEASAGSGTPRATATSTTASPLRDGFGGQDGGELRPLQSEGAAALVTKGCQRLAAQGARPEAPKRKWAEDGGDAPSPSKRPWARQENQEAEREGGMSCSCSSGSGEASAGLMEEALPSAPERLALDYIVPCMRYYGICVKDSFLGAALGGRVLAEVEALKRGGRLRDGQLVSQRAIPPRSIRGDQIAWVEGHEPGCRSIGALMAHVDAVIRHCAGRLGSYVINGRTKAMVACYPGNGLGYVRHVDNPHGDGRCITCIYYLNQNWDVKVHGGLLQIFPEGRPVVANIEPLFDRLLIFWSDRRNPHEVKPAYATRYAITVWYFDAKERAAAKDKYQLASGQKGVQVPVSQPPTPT
Text: as §1

treated subjects = conditions: treatment of anemia with ESA; cited from earlier work

PHD3, sequence (Q9H6Z9 whole entry): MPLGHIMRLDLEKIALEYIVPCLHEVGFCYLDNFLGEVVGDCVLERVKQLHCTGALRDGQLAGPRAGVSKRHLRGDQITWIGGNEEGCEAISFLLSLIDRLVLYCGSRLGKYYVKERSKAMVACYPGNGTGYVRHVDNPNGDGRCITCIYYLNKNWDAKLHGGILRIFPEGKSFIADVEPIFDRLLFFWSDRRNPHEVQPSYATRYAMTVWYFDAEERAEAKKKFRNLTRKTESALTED

Cc1nc(C(=O)NCC(=O)O)c(O)c2ccc(Oc3ccccc3)cc12 [Compound A, [(4-hydroxy-1-methyl-7-phenoxy-isoquinoline-3-carbonyl)-amino]-acetic acid]
IC50 (PHD3): 0.2 to 2 µM
Mean platelet count change from baseline to end of treatment ([1]; Group A, weight-adjusted dose three times a week, 16 weeks, baseline 267, p<0.0001): −46.55 1×10^9/L
Mean platelet count change from baseline to end of treatment ([1]; Group B, weight-adjusted dose, switched to twice weekly, 16 weeks, baseline 292, p<0.0001): −43.67 1×10^9/L
Mean platelet count change from baseline to end of treatment ([1]; Group C, initial fixed dose 50 mg three times a week, 24 weeks, baseline 255, p=0.89): −1.69 1×10^9/L
Mean platelet count change from baseline to end of treatment ([1]; Group D, initial fixed dose 100 mg three times a week, 24 weeks, baseline 231, p=0.30): −11.88 1×10^9/L
Mean change in platelet count from baseline to end of treatment, combined groups ([1]; week 17, p<0.0001): −30.05
Mean change in platelet count from baseline to end of treatment, combined groups ([1]; week 25, p=0.41): −6.94
Platelet count over course of treatment, stratified by baseline quartile ([1]; lower 3 quartiles, mean baseline 164.9, 224.8, 272.2 ×10^9/L): maintained at (or not significantly increased from) the baseline level
Platelet count over course of treatment, stratified by baseline quartile ([1]; quartile 4 (highest), mean baseline 388.7×10^9/L): decreased from baseline
Mean hemoglobin concentrations, end of treatment vs. baseline [2]: increased from the baseline
IC50 (PHD1): 0.2 to 2 µM

epoetin beta: erythropoiesis-stimulating agent, recombinant human erythropoietin (rHuEPO)
Effect on platelet count in treated subjects (treated subjects): increase platelet count

epoetin α: erythropoiesis-stimulating agent, recombinant human erythropoietin (rHuEPO)
Effect on platelet count in treated subjects (treated subjects): increase platelet count
